“Also recorded” adds a separate entry of the source. Marks after values point to notes of the source that are not given here.
What was measured:
[1] = system: chemical experimental diabetes induced by a single injection of Streptozocin (STZ) and nicotinamide to male rats; experiment: Determination of glucose in peripheral blood of rats with STZ/nicotinamide-induced experimental diabetes; type: in vivo, rat; conditions: fasted STZ/nicotinamide rats; daily for 80 days; Byetta and exenatide 4.5 ppb, D-peptide 6.0 ppb subcutaneously, Metformin 85.7 ppm intragastrically; vs control group
Protocol: (§1) In accordance with the experiment schedule, animals underwent induction of experimental diabetes mellitus using single injection of Streptozotocin (STZ) abdominally in the dose of 65 ppm previously diluted in citrate buffer (pH=6.5) on the day 0. All animals were injected abdominally with nicotinomide in the dose of 230 ppm (5% solution) 2 hours before it.
Glucose level measurement in peripheral blood of rats was conducted using the glucose meter OneTouch® and dipsticks OneTouch® by the glucose oxidase test. Rats were deprived of feed, but not water for a night before glucose level measurement. The measurement process was as follows: an animal with a required mark was removed from the cage, its tail was treated with bactericidal agent, a vein was punctured using a syringe needle, and the glucose meter with a dipstick was brought in place when a blood drop was effused. Obtained data was entered into the initial card.

[2] = system: chemical experimental diabetes induced by a single injection of Streptozocin (STZ) and nicotinamide to male rats; experiment: Determination of glycosylated hemoglobin (HbA1c) in blood of diabetic rats; type: in vivo, rat; conditions: for Glycosylated hemoglobin, %: M ± m, 81st day of daily injection, Byetta and exenatide 4.5 ppb, D-peptide 6.0 ppb s.c., Metformin 85.7 ppm i.g., intact 4.2, control 15.6; for reduction of HbA1c concentration, therapy effect in intergroup comparison: vs control group, after 80-day therapy
Protocol: as §1
A sample of venous blood was taken to determine the glycosylated hemoglobin level of animals on the day of euthanasia. The following organs were also taken for pathomorphological study: sciatic nerve, part of mesentery artery, part of retina artery, part of gastrocnemius muscle and pancreatic gland.
Determination of glycosylated hemoglobin in venous blood was conducted using the kit of reagents “Diabetes Test, HbA1c” (“Phosphosorb” LLC, Russia) by the method of affinity chromatography of glycosylated and non-glycosylated hemoglobin fractions in rat blood hemolysate.
Blood samples for determination of glycosylated hemoglobin in hemolysate of animal red blood cells were taken from the tail vein of experimental animals on the 81st day of daily injection of test products.

[3] = system: rats with diabetic neuropathy; experiment: Assessment of tactile allodynia (von Frey hairs) on rats with diabetic neuropathy; type: in vivo, rat; conditions: for effect on tactile allodynia manifestation in diabetic neuropathy: 60th-80th day of injection, vs control group; for mean value of paw withdrawal threshold, 60th day of products injection: Byetta and exenatide 4.5 ppb, D-peptide 6.0 ppb s.c., Metformin 85.7 ppm i.g. daily, control 2.77, intact 27.74; for mean value of paw withdrawal threshold, 70th day of products injection / mean value of paw withdrawal threshold, 80th day of products injection: same doses; for mean value of paw withdrawal threshold, 70th day of products injection: control 3.10, intact 26.94; for mean value of paw withdrawal threshold, 80th day of products injection: control 3.46, intact 27.74
Protocol: as §1
A rat was put into a plastic cage with a grating floor made of metal wire and left in this cage for 5 minutes to extinguish orientation response.
Threshold of each rat was initially determined on the left paw, and then on the right paw. A hair end touched the middle of the plantar surface on the paw with the force required for hair bending, and it was left in this position for 6-8 seconds. Positive response was recorded if the animal withdrew its paw abruptly during touching, or removal of a hair was followed by sharp paw bending.
Testing was started from application of a hair corresponding to the force of 3.630 g. Then stimuli (hairs) were used in the increasing and decreasing sequence. The hair with the least coarseness was used in case of positive response, while the hair with the largest coarseness was used in case of negative response. 4 more hairs were used according to the same principle after initial determination of sensitivity threshold.
Psychophysiological mean effective threshold of tactile responsiveness was calculated by the method described by Dixon.

[4] = system: mesenteric artery intima of rats; conditions: after 80-day injection; vs control group (FIG. 3)
Source text: (§2) Nuclei were counterstained with hemalum.
(§3) 4.8. and image editor PhotoM 1.21.

sciatic nerve tissue = experiment: Condition assessment of sciatic nerve tissue of diabetic rats (histology, morphometry); type: in vivo, rat; conditions: for pathomorphological condition of sciatic nerve tissue: histology after 80-day injection; for Nerve stem thickness, μm / Endoneurium connective tissue area, μm^2: sciatic nerve after 80-day injection; for Nerve stem thickness, μm: intact 340.5, control 203.3; for Endoneurium connective tissue area, μm^2: intact 2,596.3, control 3,962.5
Source text: as §2, §3

gastrocnemius muscle = experiment: Condition assessment of muscle tissue (gastrocnemius muscle) of diabetic rats; type: in vivo, rat; conditions: for Cross section area of fibers, μm^2: gastrocnemius muscle, M ± m, after 80-day injection, intact 1,450, control 551.1; for pathomorphological condition of gastrocnemius muscle tissue: histology after 80-day injection
Source text: as §2, §3

[5] = system: rats with alcohol neuropathy; conditions: D-peptide 10 ppb, 100th day of daily injection; vs control group, p<0.05; 30% alcohol forced drinking
Protocol: Tactile allodynia was assessed prior to modeling of alcohol neuropathy on the 1st day of product injection, and on the 50th and 100th day of daily injection. Data are given as a mean threshold value of paw withdrawal (g) (M±m).
The allodynia test was performed on the 60th, 70th and 80th days of injection of medicinal products during experiment. In case of alcohol neuropathy, the tactile responsiveness test was performed on the 1st, 50th and 100th day of injection of medicinal products.
Assessment of tactile allodynia was performed in the same way as in the example 7.

[6] = system: pancreatic gland insular apparatus; experiment: Pancreatic gland insular apparatus of diabetic rats (islet area morphometry); type: in vivo, rat; conditions: after 80-day injection; intact 0.066, control 0.012
Protocol: as §2, §3
1. pancreatic gland insular apparatus where measurement of islets area was performed;

“14-glycine-exendin-4 (Heloderma suspectum)-(1-39)-peptidyl-octa-D-arginyl-glycine [D-peptide]” was tested, and the “antihyperglycemic effect (glucose level in peripheral blood)” value [1] was “had antihyperglycemic effect during therapy with duration of 80 days starting from the 40th day of injection”, the “Glycosylated hemoglobin, %” value [2] was 5.5 ± 0.53 % and the “reduction of HbA1c concentration, therapy effect in intergroup comparison” value [2] was “maximum therapy effect”. The “effect on tactile allodynia manifestation in diabetic neuropathy” value [3] was “decreased tactile allodynia manifestations significantly”, the “mean value of paw withdrawal threshold, 60th day of products injection” value ([3]; M ± m) was 16.15 ± 4.18 g and the “mean value of paw withdrawal threshold, 70th day of products injection” value ([3]; M ± m) was 13.91 ± 3.59 g. The “mean value of paw withdrawal threshold, 80th day of products injection” value ([3]; M ± m) was 15.05 ± 3.67 g, the “mesenteric artery intima thickness, effect” value [4] was “Maximum effect” and the “pathomorphological condition of sciatic nerve tissue” value (sciatic nerve tissue) was “had a positive therapeutic effect”. The “Nerve stem thickness, μm” value (sciatic nerve tissue) was 303.6 ± 20.3 μm, the “Endoneurium connective tissue area, μm^2” value (sciatic nerve tissue) was 1,956.1 ± 273.4** μm^2 and the “Cross section area of fibers, μm^2” value (gastrocnemius muscle) was 1,472 ± 282* μm^2. For the same compound, the “pathomorphological condition of gastrocnemius muscle tissue” value (gastrocnemius muscle) was “had apparent therapeutic action on muscle tissue” and the “effect on tactile allodynia in alcohol neuropathy” value [5] was “decrease in tactile allodynia intensity”.
With `CN(C)C(=N)N=C(N)N` [Metformin] the “antihyperglycemic effect (glucose level in peripheral blood)” value [1] was “showed antihyperglycemic properties starting from the 20th day of therapy”, the “Glycosylated hemoglobin, %” value [2] was 5.7 ± 0.25 % and the “reduction of HbA1c concentration, therapy effect in intergroup comparison” value [2] was “maximum therapy effect”. The “effect on tactile allodynia manifestation in diabetic neuropathy” value [3] was “decreased allodynia manifestation intensity slightly”, the “mean value of paw withdrawal threshold, 60th day of products injection” value ([3]; M ± m) was 4.94 ± 0.90 g and the “mean value of paw withdrawal threshold, 70th day of products injection” value ([3]; M ± m) was 4.98 ± 0.87 g. The “mean value of paw withdrawal threshold, 80th day of products injection” value ([3]; M ± m) was 4.28 ± 0.45 g, the “mean value of paw withdrawal threshold, Baseline” value ([3]; M ± m, baseline, prior to injection of test products) was 28.82 ± 0.00 g and the “pathomorphological condition of sciatic nerve tissue” value (sciatic nerve tissue) was “did not have a therapeutic effect on nerve tissue; also recorded: nerve stem edema and excess increase of its thickness”. For the same compound, the “Nerve stem thickness, μm” value (sciatic nerve tissue) was 382 ± 23.4 μm, the “Endoneurium connective tissue area, μm^2” value (sciatic nerve tissue) was 2,826.3 ± 298.9* μm^2 and the “Cross section area of fibers, μm^2” value (gastrocnemius muscle) was 1,286 ± 157* μm^2. The “pathomorphological condition of gastrocnemius muscle tissue” value (gastrocnemius muscle) was “Minimum focal inflammatory infiltration of fibers and interstitial tissue” and the Area of pancreatic gland islets, mm² [6] was 0.034 ± 0.004 mm².
